Data as given in US20210285940A1, “Improved Fluorescent Resonance Energy Transfer-Based Biosensor Proteins And Their Methods of Use Thereof” (Pebble Labs Inc., priority 2018, published 2021).
“And” between values parts separate entries of the source, which are not always exact repeats. Equal entries are not always repeated.

Assays:
[1] = Control experiments for photo-bleaching; type: physicochemical; settings: three consecutive spectrum records, 20° C.
Method: For measurements associated with examination of ligand-induced response of TqLPNG biosensor fluorescence emission 0.1 mM BAI-2 stock solution was freshly prepared and contained 1 mM DPD and 4 mM boric acid in 50 mM HEPES buffer (pH 7.5) (Semmelhack et al., 2005). To test the biosensor fluorescence response for BAI-2 binding 400 μL samples having the same biosensor concentration (50 nM) and variable BAI-2 concentrations in 50 mM HEPES (pH 7.5)/0.4 mM boric acid/0.1 mM EDTA/0.15 M NaCl were prepared from the protein and the ligand stock solutions using analytical balances. Fluorescence emission spectra were taken following 3 min temperature equilibration of the sample within the temperature controlled cell holder (set for 20° C.).

[2] = TqLPNG fluorescence emission response towards BAI-2 binding at different NaCl concentrations; type: biochemical
Method: FIG. 8 (A-B): Response of the fluorescence emission spuctrum of TqLPNGh towards BAI-2 binding at different concentrations.of sodium chloride. Emission spectra (solid lines) were deconvoluted into the donor (dotted lines) and the acceptor (dashed lines) emission components, and the evaluation for the FRET efficiency (E values) was performed through enhancement in the acceptor emission referenced to the directly excited acceptor emission (the grey lines) as described under Materials and Methods. The spectra were recorded by using an excitation wavelength of 440 nm. Measurements were performed in a 50 mM HEPES (pH 7.5)/0.1 mM EDTA buffer (containing the specified amount of NaCl) with 50 nM TLPNGh.
FIG. 9: An example of fluorescence emission spectrum of TqLPNGh and its response to BAI-2 binding. (9A) Emisson spectra of 50 nM TqLPNGh in 50 mM HEPES (pH 7.5)/0.1 mM EDTA buffer in the absence (the grey line) and in the presence of 10 μM BAI-2 (the black line). The spectra were recorded by using a 440 nm excitation wavelength. (9B) Dependence of the BAI-2 binding TqLPNGh emission response (expressed as decrease in acceptor-to-donor emission ratio induced by BAI-2 binding) on concentration of NaCl.
TqLPNG fluorescence response towards BAI-2 binding was examined at different concentrations of NaCl (see FIG. 8). At any salt concentration, BAI-2 binding yielded an increase in the biosensor donor emission and the corresponding decrease in the acceptor emission, originated from the ligand-induced decrease in FRET between the donor and the acceptor chromophores. Indeed, for any salt concentration BAI-2 binding caused a decrease in FRET efficiency (follow the E-values in FIG. 8) and associated decrease in the acceptor-to-donor emission ratio. […] The observable BAI-2 binding amplitude was maximal at low salt buffer (−49%), strongly dropped at 0.15 M and became too small (for BAI-2 quantification applications) at 0.3 M and higher NaCl concentrations. […]
A Cary 300 spectrophotometer (Agilent/Varian Technologies) and FluoroMax fluorescence spectrophotometer (Horiba Scientific) equipped with Peltier-based temperature controlled cell holders were used for absorbance and fluorescence measurements, respectively. […] Fluorescence emission spectra were recorded in a 4 mm fluorescence cell by using 2 nm slit width at both excitation and emission monochromators. Typically, 50 nM protein concentrations were employed for fluorescence measurements. […]
FRET efficiency in TqLPNG was determined under variety of solution conditions by measurements of the emission spectra of TqLPNG (DA-species) alternatively excited at 440 nm and 505 nm. […]

[3] = Prolonged storage of TqLPNG examined through size-exclusion chromatography; type: physicochemical
Method: FIG. 12: Accumulation of high order associates of TqLPNGh during its prolonged storage in the salt-free 50 mM HEPES (pH 7.5)/0.1 mM EDTA buffer at 4° C., examined through size-exclusion chromatography. The purified TqLPNG preparation (at ˜ 9 μM protein concentration) was stored at 4° C. in plain He buffer (containing 0.25 mM DTT and 0.25 mM TCEP) at 4° C. for about 3 weeks. 0.25 mL of the TqLPNGh solution was then mixed the equal volume of the appropriate buffer to get 0, 0.15 or 0.3 M NaCl final concentration. Following 1-2 hrs incubation (at 4° C.), the diluted protein was injected into Superdex 20010/300 column equlibrated with He, He+0.15 M NaCl or He+0.3 M NaCl buffer, respectively. The protein elution was detected through absorbance at 280 nm. The flow rate was 0.5 mL/min. The large overlapping peaks at 9-12 elution volume correspond to high order TqLPNG associates. Positions of peakes corresponding to TqLPNG dimer or monomer are marked with the arrows.
The reasonable question that follows deciphering the origin of the TqLPNG fluorescence emission response towards BAI-2 binding is to understand the optimal conditions for the biosensor-based determination of BAI-2 concentrations. Low NaCl conditions provide an increased change in acceptor-to-donor emission ratio for the BAI-2 binding favorable for accurate BAI-2 quantification. […] Thus, there should by a compromise between the binding amplitude of the observable signal (i.e., the decrease in the acceptor-to-donor emission ratio corresponding to fully saturated biosensor) and stability of the TqLPNG preparation (against the formation of high order associates).

[4] = Titration of TqLPNGh biosensor with BAI-2 monitored through acceptor-to-donor emission ratio; type: binding
Method: FIG. 13: Titration of TqLPNGh biosensor with autoinducer BAI-2 monitored through acceptor-to-donor emission ratio (A-to-D ratio). Measurements of TqLPNGh fluorescence emission spectra were performed in 50 mM HEPES (pH 7.5)/0.1 mM EDTA/0.4 mM boric acid//0.15 M NaCl buffer using 50 nM TqLPNGh. Emission spectra of TqLPNG were recorded by using 440 nm excitation. The values for the A-to-D ratio for the BIA-2 titration (the filled circles) were fitted to the phenomenological Hill equation to get BAI-2 concentration corresponding to the half decrease in A-to-D ratio (C50%). The values for A-to-D ratio corresponding to the control titration, i.e., titration of TqLPNGh with the ligand-free plain buffer, are shown as unfilled circles.
The values for D-to-A fluorescence ratio values BAI-2 concentration were plotted and then fitted with the phenomenological Hill equation or with the simple single site binding model. […] The presence of boric acid in the assay buffer (i.e., 50 mM HEPES (pH 7.5)/0.1 mM EDTA/0.15 M NaCl/0.4 mM boric acid) may be beneficial. Deficiency in boric acid may cause strong reduction in the apparent ligand affinity, yielding enhanced Kd-value and, therefore, a strong decrease in biosensor sensitivity.]
A Cary 300 spectrophotometer (Agilent/Varian Technologies) and FluoroMax fluorescence spectrophotometer (Horiba Scientific) equipped with Peltier-based temperature controlled cell holders were used for absorbance and fluorescence measurements, respectively. To characterize fluorescent proteins, all measurements (including TqLPNGh titration with BAI-2) were performed at 20° C. with proteins prepared in 50 mM HEPES buffer (pH 7.5)/0.1 mM EDTA, containing different NaCl concentrations. Fluorescence emission spectra were recorded in a 4 mm fluorescence cell by using 2 nm slit width at both excitation and emission monochromators. Typically, 50 nM protein concentrations were employed for fluorescence measurements. The protein stock solutions were prepared in 50 mM HEPES buffer (pH 7.5)/0.1 mM EDTA/0.3 M NaCl at 2 μM (for the TqLPNG) or 10 μM (for Tqh or NGh) concentration.

In the case of “TqLPNG: tripartite FRET biosensor fusion mTurquoise2-(24-365)LuxP-mNeonGreen; TqLPNGh carries C-terminal His6 tag (SEQ ID NO. 2), SEQ ID NO. 3 lacks it”, the “changes in the fluorescence spectrum (photo-bleaching control)” value [1] is reported as “no changes”, the “magnitude of decrease of the acceptor-to-donor emission ratio on BAI-2 titration” value ([2]; 50 mM HEPES (pH 7.5)/0.4 mM boric acid/0.1 mM EDTA, 0.15 M NaCl) is reported as about 17% and the “observable BAI-2 binding amplitude” value ([2]; 0.3 M and higher NaCl) is reported as “too small”. The “decrease in the acceptor to donor emission ratio upon autoinducer-2 binding” value ([2]; adjustable fluorescence response, maximum) was “up to 48%”, the “observable BAI-2 binding amplitude (decrease in acceptor-to-donor emission ratio, fully saturated)” value ([2]; low salt buffer) was −49% and the “stability against formation of high order associates” value (“stability against formation” below) ([3]; 0.3 M NaCl, prolonged storage at 4° C.) was “no formation of ‘inactive’ high-order associates”. The “stability against formation” value ([3]; HEPES (pH 7.5) buffer containing 0.15 M NaCl) was “good stability”, the “stability against formation” value ([3]; prolonged storage in low salt buffer, 4° C.) was “accumulation of high-order TqLPNG associates” and the EC50 ([4]; 50 nM TqLPNG, 50 mM HEPES (pH 7.5)/0.1 mM EDTA/0.15 M NaCl/0.4 mM boric acid, Hill equation fit, read-out: BAI-2 concentration corresponding to the half-transition (C50%) in emission response) was 24 ± 1 nM. The Kd ([4]; 50 nM TqLPNG, 50 mM HEPES (pH 7.5)/0.1 mM EDTA/0.15 M NaCl/0.4 mM boric acid, single site binding model, read-out: BAI-2•TqLPNG dissociation constant (Kd)) was 9 nM and 10 nM and ~10 nM and the “higher sensitivity towards BAI-2 concentration as compared to mCLPY biosensor” value ([4]; from dissociation constants 10 nM versus 270 nM) was “more than 10 fold”.
